Here are results for 23 compounds from ChEMBL document CHEMBL5385888, “Structure-based discovery of pyrazolamides as novel ERRγ inverse agonists” (Eur J Med Chem, 2023).

Active and inactive are the calls of the source. No cut-off for these calls is given here.

Experiment [1] addresses T1, Estrogen-related receptor gamma (Mus musculus, UniProt P62509).
T1 sequence (P62509 whole entry): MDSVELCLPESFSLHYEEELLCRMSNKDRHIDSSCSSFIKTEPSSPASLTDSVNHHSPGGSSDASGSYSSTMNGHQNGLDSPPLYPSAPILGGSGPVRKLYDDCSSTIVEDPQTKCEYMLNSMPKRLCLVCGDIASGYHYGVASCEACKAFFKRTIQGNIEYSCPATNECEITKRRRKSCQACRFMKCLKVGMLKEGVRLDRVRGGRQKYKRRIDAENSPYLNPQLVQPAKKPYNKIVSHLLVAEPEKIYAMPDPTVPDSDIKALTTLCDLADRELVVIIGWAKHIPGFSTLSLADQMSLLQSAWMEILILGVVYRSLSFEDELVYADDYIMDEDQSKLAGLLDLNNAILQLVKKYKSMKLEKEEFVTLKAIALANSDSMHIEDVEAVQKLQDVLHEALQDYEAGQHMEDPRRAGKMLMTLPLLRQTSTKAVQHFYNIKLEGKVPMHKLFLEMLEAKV
The experiment in a line: Inverse agonist activity at Gal4-tagged mouse ERR-gamma LBD transfected in HEK293T cells co-expressing FR-luc assessed as inhibition of transcriptional activity incubated for 24 hrs by luciferase reporter gene assay. Type of experiment: cell-based. (In a reporter assay the amount or activity of a reporter protein is the signal.)

Experiment [2] addresses T2, Estrogen-related receptor gamma (Mus musculus) (UniProt P62509).
T2 sequence (whole entry): T1 sequence (P62509 whole entry)
The experiment in a line: Inverse agonist activity at Gal4-tagged mouse ERR-gamma LBD transfected in HEK293T cells co-expressing FR-luc assessed as inhibition of transcriptional activity at 10 uM incubated for 24 hrs by luciferase reporter gene assay. Format: cell-based.

As for `COc1ccc(-c2nn(-c3ccccc3)cc2C(=O)Nc2ccc(Oc3ccc(C)cc3OC)cc2)cc1OC`, the IC50 – broadly, the point on the concentration scale where inhibition reaches its midpoint – in experiment [1] worked out at 10.4 µM.
`Cc1ccc(-c2nn(-c3ccccc3)cc2C(=O)Nc2ccc(Oc3ccc(C(C)C)cc3)cc2)cc1`: the outcome in experiment [2] (filed as inverse agonist) was Active.
On to `COc1cc(C)ccc1Oc1ccc(NC(=O)c2cn(-c3ccccc3)nc2-c2ccc(C)cc2)cc1`, for which the IC50 in experiment [1] worked out at 5.48 µM.
For the compound `COc1cccc(-c2nn(-c3ccccc3)cc2C(=O)Nc2cc(OCCN(C)C)cc(C(F)(F)F)c2)c1`, in experiment [2], the inhibition result was “inactive”.
Same read-out and setting: as for `Nc1cc(NC(=O)c2cn(-c3ccc(C(=O)O)cc3)nc2-c2ccccc2)cc(Oc2cccnc2)c1`, the entry is “inactive”.
Take `COc1cc(C)ccc1Oc1ccc(NC(=O)c2cn(-c3ccccc3)nc2-c2ccccc2)cc1`: the IC50 in experiment [1] was 9.48 µM.
For the compound `CN(C)CCCOc1cc(N)cc(NC(=O)c2cn(-c3ccccc3)nc2-c2ccccc2)c1`, the inhibition result in experiment [2] is “inactive”.
Take `COc1cccc(Oc2cc(N)cc(NC(=O)c3cn(-c4ccccc4)nc3-c3ccccc3)c2)c1`: the IC50 in experiment [1] worked out at 13.5 µM.
Still for that read-out and setting: the result for `COC(=O)c1cccc(Oc2cc(N)cc(NC(=O)c3cn(-c4ccccc4)nc3-c3ccccc3)c2)c1` reads 8.42 µM; that for `COc1cccc(-c2nn(-c3ccccc3)cc2C(=O)Nc2cc(N)cc(Oc3cccnc3)c2)c1`, 2.91 µM.
With `CN(C)CCCOc1cc(NC(=O)c2cn(-c3ccccc3)nc2-c2ccccc2)cc(C(F)(F)F)c1`, in experiment [2], the inhibition result was “inactive”.
The same measure, in the same setting: the result for `COC(=O)c1ccc(-n2cc(C(=O)Nc3cc(N)cc(Oc4cccnc4)c3)c(-c3ccccc3)n2)cc1` reads “inactive”.
The same measure, in the same setting: as for `COc1cccc(-c2nn(-c3ccccc3)cc2C(=O)Nc2cc(OCCCN(C)C)cc(C(F)(F)F)c2)c1`, the entry is “inactive”; as for `COc1cccc(-c2nn(-c3ccccc3)cc2C(=O)Nc2cc(N)cc(OCCCN(C)C)c2)c1`, “inactive”; as for `COc1cccc(-c2nn(-c3ccccc3)cc2C(=O)Nc2cc(N)cc(OCCN(C)C)c2)c1`, “inactive”.
The same measure, in the same setting: the result for `CN(C)CCOc1cc(NC(=O)c2cn(-c3ccccc3)nc2-c2ccccc2)cc(C(F)(F)F)c1` reads “inactive”.
Take `COc1cccc(-c2nn(-c3ccccc3)cc2C(=O)Nc2cccc(Oc3cccnc3)c2)c1`: the IC50 in experiment [1] came out at 2.11 µM.
As to `Nc1cc(NC(=O)c2cn(-c3ccc(CO)cc3)nc2-c2ccccc2)cc(Oc2cccnc2)c1`, the inhibition result in experiment [2] was “inactive”.
The same measure, in the same setting: the result for `CCN(CC)C(=O)c1ccc(-n2cc(C(=O)Nc3cc(N)cc(Oc4cccnc4)c3)c(-c3ccccc3)n2)cc1` reads “inactive”.
As for `O=C(Nc1cccc(Oc2cccnc2)c1)c1cn(-c2ccccc2)nc1-c1ccccc1`, the IC50 in experiment [1] was determined as 1.33 µM.
Still for that read-out and setting: as for `COc1cccc(Oc2cc(N)cc(NC(=O)c3cn(-c4ccccc4)nc3-c3cccc(OC)c3)c2)c1`, the figure is 8.47 µM.
The same measure, in the same setting: the result for `COc1ccc(-c2nn(-c3ccccc3)cc2C(=O)Nc2ccc(Oc3ccc(C(C)C)cc3)cc2)cc1OC` reads 9.95 µM; that for `O=C(Nc1cc(Oc2cccnc2)cc(C(F)(F)F)c1)c1cn(-c2ccccc2)nc1-c1ccccc1`, 6.75 µM.
